# Columns and labels:
# V2122 [1] = molecular target: T1, V2122 (Streptomyces avidinii, UniProt P22629, E125D/E140N/N47D/N73G/R108K/R127K/S51D/S69N/Y107S/Y46S); assay: ITC binding analysis of V2122 and compounds; settings: 25 μM V2122, PBS, 25° C.
# T1 construct: T7-Tag; made in house
# Method: Microcal iTC200 (MicroCal, Northampton, Mass.) was used for the measurement.
# For the measurement, concentration of the stock solutions was adjusted to a ten-fold concentration of V2122 to be measured. Into a cell of a calorimeter, 25 μM of V2122 was placed, and each solution was added dropwise at a stirring speed of 1000 rpm at 25° C. Obtained data was analyzed using ORIGIN, and the titration curve was fitted based on the one-site binding isotherm.
# V2122 [2] = molecular target: T1, V2122; assay: SPR analysis of affinity between V2122 and compound; assay type: binding
# Method: Interaction of V2122, which is a LISA314 modified protein purified as described above, with Compound C was investigated by surface plasmon resonance (SPR). More specifically, using Biacore T200 (GE Healthcare BioScience Corp.) as a measuring instrument, and Sensor Chip NTA (GE Healthcare BioScience Corp.) as a sensor chip, the protein was immobilized on the sensor chip by way of His-Tag having been fused to the core protein. The running buffer was prepared using HBS-P(+), as described in the manual. A two-fold dilution series was prepared in nine steps by diluting a 1600 nM solution using the running buffer. The affinity was measured in the kinetics mode, and acquired data was subjected to equilibrium analysis using Biacore T200 Evaluation Software to determine the affinity.
# DLD1 tumor = assay: In vivo imaging, DLD1 heterotransplantation model; set-up: species or system nude mice; settings: pre-mixed with the antibody, intravenous
# Method: The thus purified anti-epiregulin scFv-V2122 was mixed with Psyche F-IRDye 800 (Compound 44 in Example) dissolved in DMSO (final concentration was ten-fold molar concentration), and the mixture was incubated on ice for 10 minutes. The buffer was then replaced with Japanese Pharmacopoeia physiological saline (Otsuka Pharmaceutical Co., Ltd.) using Zeba Spin Desalting Column (Thermo Fisher Scientific Inc.) and was stored under cooling. Epiregulin IgG was labeled using ICG Labeling Kit-NH2 (Dojindo Laboratories).
# Suspension liquid of human colorectal cancer-derived DLD1 cell and Matrigel Matrix (Corning) were mixed in a ratio of 1:1 (5×10^6 cells/0.1 mL), and 0.1 mL of the mixed liquid was administered subcutaneously in the left side of 5 to 6-week-old female nude mice (Sankyo Labo Service Corporation, Inc.). The mice were bred for several weeks to produce tumor. One week before imaging, the feed was switched to a low fluorescence feed (iVid #1, Oriental Yeast Co., Ltd.) and the breeding was continued. […]
# Anti-epiregulin scFv-V2122 antibody (25 μg, 50 μg, 100 μg) preliminarily labeled with fluorescence by allowing it to react with Psyche F-IRDye 800 (Compound 44 in Example), or fluorescent-labeled epiregulin IgG (50 μg) was intravenously administered to nude mice having established DLD1 tumor. […]
# [3] = tested on: human Burkitt lymphoma Ramos tumor; assay: In vivo imaging, Ramos heterotransplantation model; set-up: species or system nude mice; settings: pre-mixed with the antibody, intravenous
# Method: The thus purified Rituximab-scFv-V2122 was preliminarily mixed with Psyche F-IRDye 800 (Compound 44 in Example) dissolved in DMSO (final concentration is ten-fold molar concentration), and incubated on ice for 10 minutes. The buffer was then replaced with Japanese Pharmacopoeia physiological saline (Otsuka Pharmaceutical Co., Ltd.) using Zeba Spin Desalting Column (Thermo Fisher Scientific Inc.).
# Ramos cell suspension and Matrigel Matrix (Corning) were mixed in a ratio of 1:1 (5×10^6 cells/0.1 mL), and 0.1 mL of the mixed liquid was administered subcutaneously in the left side of 5 to 6-week-old female nude mice (Sankyo Labo Service Corporation, Inc.). The mice were bred for several weeks to produce tumor. One week before imaging, the feed was switched to a low fluorescence feed (iVid #1, Oriental Yeast Co., Ltd.) and the breeding was continued. […]
# Rituximab-scFv-V2122 antibody (25 μg, 50 μg, 100 μg), preliminarily labeled with fluorescence by reacting it with Psyche F-IRDye 800 (Compound 44 in Example), was intravenously administered to nude mice having established human Burkitt lymphoma Ramos. For investigation into accumulation in tumor, accumulation of IRDye 800 in the tumor was evaluated 2, 24 and 48 hours after the administration, using in vivo photo-imaging instrument Clairvivo OPT plus (Shimadzu Corporation) (FIG. 19).
# Rituximab-scFv-V2122 = assay: Flow cytometry: binding of FITC-labeled compound to Rituximab-scFv-V2122 on RAMOS cell; assay type: cell-based; settings: RAMOS cells pre-incubated with Rituximab-scFv-V2122; compound 3 nM, 10 nM, 30 nM
# Method: The thus refolded and purified Rituximab-scFv-V2122 was evaluated regarding binding potential with RAMOS (human Burkitt lymphoma) cell (JCRB Cell Bank), which is a CD20 positive cell. More specifically, Rituximab-scFv-V2122 was diluted with PBS into three concentrations (0.05, 0.5, 5 μg/mL). 1×10^6 cells were placed in a 1.5 mL tube, centrifuged at 400×g for 4 minutes, and the supernatant was discarded to collect the cells. The collected cells were added with 100 μL of the diluted Rituximab-scFv-V2122, mixed well, and then incubated on ice for 30 minutes. The content was centrifuged again, the supernatant was discarded, added with 1 mL of PBS to wash the cells, and the cells were then collected. […] After the incubation, the content was centrifuged again, the supernatant was discarded, added with 1 mL of PBS to wash the cells, and the cells were then collected. The collected cells were suspended in 500 μL of PBS, and measured on a flow cytometer (guava easyCyte Single System; Merck Millipore).
# T1 sequence (P22629 37-163 Y46S/N47D/S51D/S69N/N73G/Y107S/R108K/E125D/R127K/E140N): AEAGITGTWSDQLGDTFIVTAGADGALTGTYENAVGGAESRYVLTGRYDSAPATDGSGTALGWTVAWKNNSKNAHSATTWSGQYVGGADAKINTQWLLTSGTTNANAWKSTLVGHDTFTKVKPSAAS
smiles,measurement,setting,value
"N=C1N[C@H]2[C@H](CS[C@H]2CCCCC(=O)NCCCCCC(=O)NCCNC(=O)CCCCCNC(=O)CCCC[C@@H]2SC[C@@H]3NC(=N)N[C@@H]32)N1 [Compound 7, (3aS,3a′S,4S,4′S,6aR,6a′R)-4,4′-(5,12,17,24-Tetraoxo-6,13,16,23-tetraazaoctacosane-1,28-diyl)bis[tetrahydro-1H-thieno[3,4-d]imidazole-2(3H)-iminium] di(2,2,2-trifluoroacetate)]",interaction with V2122 measured by ITC,V2122 [1],"exothermic, suggesting a strong binding"
same,Kd,V2122 [2],3.15 nM
"COC(=O)[C@H](CCCCNC(=O)c1cc(NC(=O)NCCOCCOCCNC(=O)CCCCC[N+]2=C(/C=C/C3=C(Oc4ccc(S(=O)(=O)O)cc4)C(=C/C=C4/N(CCCCS(=O)(=O)O)c5ccc(S(=O)(=O)O)cc5C4(C)C)/CCC3)C(C)(C)c3cc(S(=O)(=O)[O-])ccc32)cc(C(=O)NCCCC[C@H](NC(=O)CCCC[C@@H]2SC[C@@H]3NC(=N)N[C@@H]32)C(=O)OC)c1)NC(=O)CCCC[C@@H]1SC[C@@H]2NC(=N)N[C@@H]21 [Compound 44, 1-(1-((3,5-Bis(((S)-5-(5-((3aS,4S,6aR)-2-iminohexahydro-1H-thieno[3,4-d]imidazole-4-yl)pentanamido)-6-methoxy-6-oxohexyl)carbamoyl)phenyl)amino)-1,12-dioxo-5,8-dioxa-2,11-diazaheptadecane-17-yl)-2-((E)-2-((E)-3-(2-((E)-3,3-dimethyl-5-sulfo-1-(4-sulfobutyl)indoline-2-ilidene)ethylidene)-2-(4-sulfophenoxy)cyclohex-1-ene-1-yl)vinyl)-3,3-dimethyl-3H-indol-1-ium-5-sulfonate]",binding with anti-epiregulin scFv-V2122 antibody in vivo,DLD1 tumor,remain bound in vivo
same,binding with Rituximab-scFv-V2122 antibody in vivo,[3],remain bound in vivo
N=C1N[C@H]2[C@H](CS[C@H]2CCCCC(=O)NCCCCCC(=O)Nc2cc(NC(=O)CCCCCNC(=O)CCCC[C@@H]3SC[C@@H]4NC(=N)N[C@@H]43)cc(C(=O)NCCOCCOCCNC(=S)Nc3ccc4c(c3)C(=O)OC43c4ccc(O)cc4Oc4cc(O)ccc43)c2)N1 [FITC-labeled Compound B],"binding with Rituximab-scFv-V2122, shifts of fluorescence intensity",Rituximab-scFv-V2122,concentration-dependent shifts of fluorescence intensity were also confirmed
"O=C(O)CCCC[C@@H]1SC[C@@H]2NC(=O)N[C@@H]21 [biotin, reference compound]",interaction with V2122 measured by ITC,V2122 [1],non-interactive
